Assay results as given in US5985885A, “Quinazoline-4-amino-2-(piperidine-1-yl-4-substituted) derivatives having antihypertensive activity, a method for their preparation and their pharmaceutical use” (priority 1996, dated 1999).
pIC50: −log10 of the molar value. Counter-ions that a name gives are not always drawn. Like-named read-outs stand apart in the source and are kept apart here.

Assays:
[1] = biological target: alpha1A + alpha1C adrenergic receptor (human prostate); experiment: [3H]-prazosin binding in human prostate; settings: alpha1A + alpha1C subtype, pH 7.5, 30 min, 25° C., read-out: Inhibition of the binding of [3H]-prazosin IC50
[2] = biological target: T1, alpha1A adrenergic receptor (rat GSM) (Rattus norvegicus, UniProt P43140); experiment: [3H]-prazosin binding in rat submaxillary glands (GSM); settings: alpha1A subtype, pH 7.4, 45 min, 25° C., read-out: Inhibition of the binding of [3H]-prazosin IC50
T1 sequence (P43140 1-466): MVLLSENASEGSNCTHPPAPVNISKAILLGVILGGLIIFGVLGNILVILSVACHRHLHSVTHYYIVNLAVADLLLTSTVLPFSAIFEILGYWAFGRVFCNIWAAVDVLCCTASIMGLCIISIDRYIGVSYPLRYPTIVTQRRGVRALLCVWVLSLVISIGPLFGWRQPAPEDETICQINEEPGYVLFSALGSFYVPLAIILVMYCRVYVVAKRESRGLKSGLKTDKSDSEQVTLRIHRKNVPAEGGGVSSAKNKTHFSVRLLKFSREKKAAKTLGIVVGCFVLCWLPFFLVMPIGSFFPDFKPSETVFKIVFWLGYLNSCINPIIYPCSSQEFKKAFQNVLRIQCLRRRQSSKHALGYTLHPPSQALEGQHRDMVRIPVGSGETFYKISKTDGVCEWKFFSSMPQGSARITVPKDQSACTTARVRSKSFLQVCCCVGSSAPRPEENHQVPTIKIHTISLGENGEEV

[3] = test system: anaesthetised normotensive rat; experiment: Hypotensive activity in the anaesthetised normotensive rat (IV); format: in vivo; settings: for ED30: Rattus norvegicus, read-out: Reduction in mean arterial pressure ED30
Protocol: In order to evaluate the in vivo activity, some of the compounds of the invention were administered (IV) in bolus form to the normotensive rat anaesthetised with urethane plus ketamine. The compounds were administered in at least three doses in experiments performed in duplicate so as to enable the calculation of ED30 values, that is, the dose in mg/kg that reduces the mean basal arterial pressure by 30%. The compounds of the invention, and several reference standards, were dissolved in dilute hydrochloric acid at a physiologically acceptable pH, and physiological solution was administered in a volume of 3 ml/kg. Evaluations were made at two time periods, that is, the intervals 0-30 min and 30-60 min after administration.

[4] = biological target: T2, alpha1B adrenergic receptor (rat liver) (Rattus norvegicus, UniProt P15823); experiment: [3H]-prazosin binding in rat liver
T2 sequence (P15823 1-515): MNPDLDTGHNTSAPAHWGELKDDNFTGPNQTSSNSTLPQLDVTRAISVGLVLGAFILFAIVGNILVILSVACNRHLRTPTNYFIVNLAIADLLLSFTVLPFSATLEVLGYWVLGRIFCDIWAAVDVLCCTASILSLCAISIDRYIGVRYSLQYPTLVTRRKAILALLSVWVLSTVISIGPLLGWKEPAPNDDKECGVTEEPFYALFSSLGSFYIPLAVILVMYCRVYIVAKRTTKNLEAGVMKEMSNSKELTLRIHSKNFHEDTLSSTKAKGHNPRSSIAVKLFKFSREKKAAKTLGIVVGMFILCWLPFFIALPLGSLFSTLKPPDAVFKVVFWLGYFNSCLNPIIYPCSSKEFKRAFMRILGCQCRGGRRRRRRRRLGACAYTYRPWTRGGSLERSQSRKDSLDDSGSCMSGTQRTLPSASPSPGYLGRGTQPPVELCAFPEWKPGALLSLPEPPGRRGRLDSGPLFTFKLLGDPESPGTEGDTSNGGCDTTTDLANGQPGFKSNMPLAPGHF

[5] = test system: spontaneously hypertensive (SHR) rat; experiment: Anti-hypertensive activity in the spontaneously hypertensive (SHR) rat (oral); format: in vivo
Description: Animals having a mean basal systolic pressure of not less than 180 mmHg were used.

[6] = biological target: T3, 5-HT2 receptors (isolated rabbit aorta) (Oryctolagus cuniculus, UniProt G1SYA7); experiment: Antagonism of serotonin-induced contraction of isolated rabbit aorta; settings: for pIC50: isolated rabbit aorta, 37° C., compound 10 min before agonist, limits (p < 0.05)
T3 construct: Four rings formed from rabbit aorta were joined together to form a chain; from tissue; host or cells: isolated rabbit aorta rings
T3 sequence (G1SYA7 1-469): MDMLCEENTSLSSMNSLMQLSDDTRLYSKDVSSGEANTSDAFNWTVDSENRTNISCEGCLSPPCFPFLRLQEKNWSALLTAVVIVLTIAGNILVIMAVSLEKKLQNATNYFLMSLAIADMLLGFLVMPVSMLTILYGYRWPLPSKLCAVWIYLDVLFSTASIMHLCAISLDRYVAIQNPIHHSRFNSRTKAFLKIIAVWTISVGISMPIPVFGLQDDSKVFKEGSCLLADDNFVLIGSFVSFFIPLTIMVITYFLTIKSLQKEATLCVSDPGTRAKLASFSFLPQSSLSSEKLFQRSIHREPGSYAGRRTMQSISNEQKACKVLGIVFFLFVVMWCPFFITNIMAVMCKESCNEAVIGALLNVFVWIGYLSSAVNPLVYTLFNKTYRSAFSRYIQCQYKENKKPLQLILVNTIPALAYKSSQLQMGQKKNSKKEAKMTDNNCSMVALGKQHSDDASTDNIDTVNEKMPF
Protocol: The antagonist activity of some of the compounds of the invention on the contractile activity of seratonin on isolated rabbit aorta, effected principally by way of the 5-HT2 receptors, is reported here by way of example. The method of Feniuk et al [Br. J. Pharmacol. (1985), 86, 697-704] was used, with slight modifications. Four rings formed from rabbit aorta were joined together to form a chain; the preparation was placed in an isolated organ bath in the presence of Krebs at 37° C. and attached to an isometric transducer, a tension of 2 g being applied and oxygenation was carried out continuously with O2 --CO2 (95-5 v/v). A seratonin concentration(0.3 μM) was used that was capable of causing sub-maximal contraction of the preparation. […] The results obtained in this way are given in Table 4 below which, for several of the compounds of the invention gives IC50 values calculated by the regression method on a set of at least 2 experiments at 5 different concentrations for each of the compounds examined, these being compared with values obtained for several reference compounds.

in vivo = settings: rat
[7] = test system: alpha1A, alpha1B and alpha1C adrenergic receptor subtypes; experiment: [3H]-prazosin binding, alpha1 subtypes together (Table 3 overall); settings: reference compounds versus compounds of the invention/prazosin

Question: Which results are given for `COc1cc2nc(N3CCC(c4ccccn4)CC3)nc(N)c2cc1OC` [Compound 7, 1-(4-amino-6,7-dimethoxy-2-quinazolinyl)-4-(2-pyridyl)piperidine(hydrochloride)]?
Answer: pIC50 [1]: 8.30; pIC50 [2]: 8.51; ED30 ([3]; 0.5 h, IV bolus, interval 0-30 min): 0.08 mg/kg; ED30 ([3]; 1 h, IV bolus, interval 30-60 min): 0.09 mg/kg; pIC50 [4]: 8.09; anti-hypertensive action (in words) [5]: about as powerful as prazosin; Cardiac frequency, max effect at 3 mg/kg [5]: +0.9 % vs basal; Systolic pressure, max effect at 3 mg/kg [5]: -22.7 % vs basal; ED20 ([5]; Rattus norvegicus, 2 h, 0-120 min, NC: not calculable, read-out: Systolic pressure ED20 (0-120 min)): 2.2 mg/kg; pIC50 [6]: 4.26; bioavailability (in vivo; plasma, po, 15 mg/kg OS vs 1 mg/kg IV, read-out: relative bioavailability (AUC OS/AUC IV, dose corrected)): ~80%; AUC (in vivo; plasma, po, OS 15 mg/kg): 3620 ng·h/mL; concentration at 0.25 h (in vivo; plasma, po, OS 15 mg/kg): 230 ng/mL; concentration at 0.5 h (in vivo; plasma, po, OS 15 mg/kg): 360 ng/mL; concentration at 1 h (in vivo; plasma, po, OS 15 mg/kg): 480 ng/mL; concentration at 2 h (in vivo; plasma, po, OS 15 mg/kg): 390 ng/mL; concentration at 3 h (in vivo; plasma, po, OS 15 mg/kg, 3 h): 340 ng/mL; concentration at 4 h (in vivo; plasma, po, OS 15 mg/kg, 4 h): 320 ng/mL; concentration at 6 h (in vivo; plasma, po, OS 15 mg/kg, 6 h): 280 ng/mL; concentration at 8 h (in vivo; plasma, po, OS 15 mg/kg, 8 h): 180 ng/mL; concentration at 12 h (in vivo; plasma, po, OS 15 mg/kg, 12 h): 80 ng/mL; AUC (in vivo; plasma, IV 1 mg/kg): 300 ng·h/mL; concentration at 0.083 h (in vivo; plasma, IV 1 mg/kg, 0.083 h): 420 ng/mL; concentration at 0.25 h (in vivo; plasma, IV 1 mg/kg): 300 ng/mL; concentration at 0.5 h (in vivo; plasma, IV 1 mg/kg): 180 ng/mL; concentration at 1 h (in vivo; plasma, IV 1 mg/kg): 100 ng/mL; concentration at 2 h (in vivo; plasma, IV 1 mg/kg): 40 ng/mL; Plasma concentration (in vivo; IV 1 mg/kg, 6 h): 0 ng/mL; concentration at 3 h (in vivo; plasma, iv, 1 mg/kg): 20 ng/mL; concentration at 4 h (in vivo; plasma, iv, 1 mg/kg): 10 ng/mL; concentration at 24 h (in vivo; plasma, po, 15 mg/kg): 20 ng/mL; half-life (in vivo; plasma, read-out: half-life, terminal elimination phase (converted)): ~6 h

Question: Which results are given for `O=C(c1ccc(F)cc1)C1CCN(CCn2c(=O)[nH]c3ccccc3c2=O)CC1` [Ketanserine, reference compound]?
Answer: pIC50 [1]: 6.57; times less powerful (on average) [7]: 10 to 30 times; pIC50 [2]: 7.32; pIC50 [4]: 7.52; pIC50 [6]: 6.64

Question: For `COc1cccc(OC)c1OCCNCC1COc2ccccc2O1` (stereo not drawn) [WB-4101, reference compound], which “times less powerful (on average)” value [7] is on record?
Answer: Its value is 10 to 30 times.

Question: And the pIC50 [2]?
Answer: The pIC50 was 7.78.

Question: What about the “hypotensive activity compared with prazosin/compounds (in words)” value ([3]; IV bolus) of the same molecule?
Answer: The value was “less active”.

Question: What about the ED30 ([3]; iv, 0.5 h) of the same molecule?
Answer: The ED30 was 0.13 mg/kg.

Question: What about the ED30 ([3]; iv, 1 h) of the same molecule?
Answer: The ED30 was 0.29 mg/kg.

Question: And the “anti-hypertensive action (in words)” value [5]?
Answer: The value was “inactive”.

Question: And the “Systolic pressure ED20 (0-120 min)” value ([5]; 0-120 min, NC: not calculable)?
Answer: The value was “INACTIVE”.

Question: And the “Cardiac frequency, max effect at 3 mg/kg” value [5]?
Answer: Its value is -5.7 % vs basal.

Question: And the “Systolic pressure, max effect at 3 mg/kg” value [5]?
Answer: Its value is -2.6 % vs basal.

Question: What about the pIC50 [6] of the same molecule?
Answer: Its pIC50 is under 3.84.

Question: And the “5-HT2-antagonist activity (in words)” value ([6]; rabbit aorta)?
Answer: The value was “inactive until higher doses (50 μg/ml)”.
